What was measured:
[1] = test system: MiaPaca2 (Pancreatic Cancer); experiment: Monolayer assay (CCK-8 cytotoxicity); format: cell-based; conditions: Homo sapiens, MIA PaCa-2, MiaPaca 2, Pancreatic, 24 hrs exposure
Description: The assays were designed as in the reference, BMC Cancer, 2010, 10, 610, 1-11; the disclosure of which is incorporated by reference for the teaching of the assay.
Human tumour cell lines: Panc-1 (Pancreatic Cancer), HCT 116 (Colorectal Cancer), ACHN (Renal Cell Carcinoma), Calu-1 (Lung Carcinoma), MiaPaca2 (Pancreatic Cancer), FADU (Head and Neck Cancer), PC3 (prostate Cancer), G361 (Melanoma), MDA-MB435S (Melanoma), HeLa (Cervical Cancer) were grown in Minimal Essential Media with Eagle's Basal Salts (MEM-EBS) obtained from AMIMED (BioConcept-Switzerland). Tumour cell lines: MDA-MB231 (Breast Cancer), JURKAT (T cell leukaemia), H460 (Small Cell Lung Cancer) were cultured in RPMI 1640 (AMIMED, BioConcept, Switzerland) medium. All tumour cell lines were supplemented with 10% Foetal Bovine Serum (FBS) (GIBCO), 1% Penicillin/Streptomycin (Sigma) and 1% Anti-Anti (GIBCO) and grown in T-175 tissue culture flasks (Nunc). MCF-10A, a non-tumourigenic cell line, was cultured in Mammary Epithelial Basal Medium (MEBM) with all standard additions (Lonza, Catalog. No. CC-3150). All cells were grown in 5% CO2 incubator at 37° C. Cells were passaged at 80-90% confluence. […]
Compound of Formula (1a) [described in example 7] was dissolved in DMSO to give a required stock solution of 20 mM. […] Each concentration was evaluated in triplicate. […]

[2] = test system: nuclear factor-kappa B (p65) [NFkB (p65)] in HeLa cells; experiment: Protein expression by high content screening (Cellomics); format: cell-based, human; conditions: for Fold down regulation with respect to control cells, NFkB (p65): HeLa cells, after 3 hours
Description: (§1) Protein expressions of cyclin D, nuclear factor-kappa B (p65) [NFkB (p65)], ribosomal protein S6 (pS6), tumor protein 53 (p53), protein c-jun N-terminal kinase (pJNK), cleaved caspase 9, cleaved caspase 3 and cleaved poly(ADP-ribose) polymerase (PARP) was carried out in HeLa cells [referred to in step 1 of example 16] by Cellomics high content imaging. These primary antibodies were purchased from Santacruz Biotechnology, USA. Briefly 1×10^4 cells were seeded in 96 well tissue culture grade black plate with transparent bottom (Nunc, USA), and allowed to adhere for 24 h, and then replaced with fresh media, and cells were treated with 0.01 μM, 0.003 μM and 0.0003 μM concentrations of compound of Formula (1) [referred to in step 2 of example 16] and incubated for 1 h and 3 h respectively. After respective time point, cells were fixed with 3.7% formaldehyde (Sigma St. Louis, Mo.) for 10 minutes at RT, followed by permeabilization with 0.15% Triton X-100 (Sigma St. Louis, Mo.) for 10 minutes. Then the cells were blocked with 5% Bovine Serum Albumin for 2 hours. After blocking step, specific primary antibodies were added for 1 h, and primary antibodies of different protein were localized by secondary antibody labeled with Dylight548 (red) (Thermofisher, USA). Following secondary incubation, the nucleus was stained with Hoechst 3342 (blue) (Sigma, USA). Immunofluorescence was determined by scanning the plates on Cellomics Array Scan® VTI HCS Reader (Thermo-Fisher Scientific Inc., Waltham, Mass.). All the data points were analyzed using the Compartmental Analysis bio-algorithm of Cellomics and quantitative data were expressed as % activation in comparison to the untreated cells. 1000 cells were counted for each replicate well and the results were presented as an average±S.E.

[3] = test system: cleaved caspase 3 in HeLa cells; experiment: as above; format: cell-based, human; conditions: for Fold activation with respect to control cells, Cleaved Caspase 3: HeLa cells, after 3 hours
Description: as §1

[4] = test system: ribosomal protein S6 (pS6) in HeLa cells; experiment: as above; format: cell-based, human; conditions: for Fold down regulation with respect to control cells, pS6: HeLa cells, after 3 hours
Description: as §1

[5] = test system: protein c-jun N-terminal kinase (pJNK) in HeLa cells; experiment: as above; format: cell-based, human; conditions: for Fold activation with respect to control cells, pJNK: HeLa cells, after 3 hours
Description: as §1

[6] = test system: cleaved poly(ADP-ribose) polymerase (PARP) in HeLa cells; experiment: as above; format: cell-based, human; conditions: for Fold activation with respect to control cells, Cleaved PARP: HeLa cells, after 3 hours
Description: as §1

[7] = test system: cleaved caspase 9 in HeLa cells; experiment: as above; format: cell-based, human; conditions: for Fold activation with respect to control cells, Cleaved Caspase 9: HeLa cells, after 3 hours
Description: as §1

`CC(C)CC1CCC(O)(C(C)(O)C(=O)NC2C(=O)N3NCCCC3C(=O)N(O)C(C)C(=O)NCC(=O)N3NCCCC3C(=O)N(O)C(C)C(=O)OC2C(C)C)OC1C` (stereo not shown) [Formula (1a), N-(6,18-dihydroxy-22-isopropyl-7,19-dimethyl-5,8,11,17,20,24-hexaoxotetracosa hydrodipyridazino[6,1-f:6′,1′-o][1,4,7,10,13,16]oxapentaazacyclononadecin-23-yl)-2-hydroxy-2-(2-hydroxy-5-isobutyl-6-methyltetrahydro-2H-pyran-2-yl)propanamide] was tested, and the IC50 [1] was 25.3 ± 4.6 nM, the “Fold down regulation with respect to control cells, NFkB (p65)” value (from here on “Fold down regulation … (p65)”) ([2]; 0.0003 μM) was −0.46 fold and the “Fold down regulation … (p65)” value ([2]; 0.003 μM) was −0.80 fold. For the same compound, the “Fold down regulation … (p65)” value ([2]; 0.01 μM) was −1.86 fold, the “effect on NFkB (p65) protein expression (in words)” value ([2]; cancer cells, conclusion) was “significantly downregulates” and the “Fold activation with respect to control cells, Cleaved Caspase 3” value (“Fold activation … Cleaved Caspase 3” for short) ([3]; 0.0003 μM) was −0.04 fold. For the same compound, the “Fold activation … Cleaved Caspase 3” value ([3]; 0.003 μM) was 0.53 fold, the “Fold activation … Cleaved Caspase 3” value ([3]; 0.01 μM) was 1.62 fold and the “effect on cleaved caspase 3 (in words)” value ([3]; cancer cells, conclusion) was “prominent upregulation”. For the same compound, the “Fold down regulation with respect to control cells, pS6” value (from here on “Fold down regulation … pS6”) ([4]; 0.0003 μM) was −0.42 fold, the “Fold down regulation … pS6” value ([4]; 0.003 μM) was −0.56 fold and the “Fold down regulation … pS6” value ([4]; 0.01 μM) was −1.97 fold. For the same compound, the “effect on pS6 protein expression (in words)” value ([4]; cancer cells, conclusion) was “significantly downregulates”, the “Fold activation with respect to control cells, pJNK” value (“Fold activation … pJNK” for short) ([5]; 0.0003 μM) was 0.55 fold and the “Fold activation … pJNK” value ([5]; 0.003 μM) was 0.85 fold. The “Fold activation … pJNK” value ([5]; 0.01 μM) was 2.42 fold, the “effect on pJNK expression (in words)” value ([5]; cancer cells, conclusion) was “up-regulates” and the “Fold activation with respect to control cells, Cleaved PARP” value (“Fold activation … Cleaved PARP” for short) ([6]; 0.0003 μM) was 0.52 fold. For the same compound, the “Fold activation … Cleaved PARP” value ([6]; 0.003 μM) was 1.09 fold, the “Fold activation … Cleaved PARP” value ([6]; 0.01 μM) was 1.51 fold and the “effect on cleaved PARP (in words)” value ([6]; cancer cells, conclusion) was “prominent upregulation”. For the same compound, the “Fold activation with respect to control cells, Cleaved Caspase 9” value (“Fold activation … Cleaved Caspase 9” for short) ([7]; 0.0003 μM) was −0.04 fold, the “Fold activation … Cleaved Caspase 9” value ([7]; 0.003 μM) was 0.53 fold and the “Fold activation … Cleaved Caspase 9” value ([7]; 0.01 μM) was 2.22 fold. The “effect on cleaved caspase 9 expression (in words)” value ([7]; cancer cells, conclusion) was “up-regulates”.
